Like-named read-outs stand apart in the source and are kept apart here.
How the values were obtained:
[1] = tested on: Jurkat HIV-luciferase clones; assay: Jurkat latency reversal assay; assay type: cell-based; conditions: Homo sapiens, 48 h; Jurkat latency reversal assay potency; read-out: Jurkat pEC50 (converted)
How it was run: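 A 1:1:1 mix of three Jurkat clones (C16, 115, N6) carrying integrated luciferase-expressing HIV proviruses, 5,000 cells/well, was exposed to 3-fold, 14-point compound titrations from 10 μM at 0.5% DMSO for 48 h at 37° C. Steady-Glo luminescence was fitted by four-parameter logistic regression to give EC50 and maximal percent activation relative to vehicle.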

cIAP1-BIR3 = cIAP1-BIR3 (Homo sapiens (Human), UniProt Q13490); assay: BIR binding assay (FRET competition), cIAP1 BIR3; conditions: for cIAP1 BIR3 vs BIR2 separation window: fold separation (FS) for cIAP1
Sequence of cIAP1-BIR3 (Q13490 253-363): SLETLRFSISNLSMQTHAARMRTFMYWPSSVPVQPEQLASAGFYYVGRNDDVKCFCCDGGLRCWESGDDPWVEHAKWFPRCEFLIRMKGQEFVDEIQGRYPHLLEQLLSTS
How it was run: (§1)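 615/665 nm FRET ratio. Compound, His-domain and 200 nM AF647-SMAC peptide incubated 60 min, then 2 nM Eu-W1024 for 30 min. Domains: cIAP1-BIR3 50 nM; XIAP-BIR3 100 nM; cIAP1-BIR2, cIAP2-BIR2 325 nM each. 15-pt 3-fold series; variable-slope IC50.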

cIAP1-BIR2 = cIAP1-BIR2 (Homo sapiens (Human), UniProt Q13490); assay: BIR binding assay (FRET competition), cIAP1 BIR2
Sequence of cIAP1-BIR2 (Q13490 173-257): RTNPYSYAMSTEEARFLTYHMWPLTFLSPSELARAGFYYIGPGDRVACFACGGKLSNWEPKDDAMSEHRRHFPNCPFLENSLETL
How it was run: as §1

cIAP2-BIR3 = cIAP2-BIR3 (Homo sapiens (Human), UniProt Q13489); assay: BIR binding assay (FRET competition), cIAP2 BIR3; conditions: for cIAP2 BIR3 vs BIR2 separation window: fold separation (FS) for cIAP2
Sequence of cIAP2-BIR3 (Q13489 238-349): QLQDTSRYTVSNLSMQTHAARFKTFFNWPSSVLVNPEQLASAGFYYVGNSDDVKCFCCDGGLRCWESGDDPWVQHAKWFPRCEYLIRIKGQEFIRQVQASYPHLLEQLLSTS

cIAP2-BIR2 = cIAP2-BIR2 (Homo sapiens (Human), UniProt Q13489); assay: BIR binding assay (FRET competition), cIAP2 BIR2
Sequence of cIAP2-BIR2 (Q13489 158-242): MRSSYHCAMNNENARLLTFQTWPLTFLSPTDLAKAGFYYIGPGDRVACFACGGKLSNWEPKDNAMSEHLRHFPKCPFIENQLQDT
How it was run: as §1

XIAP-BIR3 = XIAP-BIR3 (Homo sapiens (Human), UniProt P98170); assay: BIR binding assay (FRET competition), XIAP BIR3; conditions: for XIAP BIR3 vs BIR2 separation window: fold separation (FS) for XIAP
Sequence of XIAP-BIR3 (P98170 241-356): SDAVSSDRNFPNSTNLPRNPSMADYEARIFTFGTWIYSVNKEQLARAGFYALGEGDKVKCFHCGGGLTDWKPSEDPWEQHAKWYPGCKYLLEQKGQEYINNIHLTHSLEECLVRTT
How it was run: as §1

XIAP-BIR2 = XIAP-BIR2 (Homo sapiens (Human), UniProt P98170); assay: BIR binding assay (FRET competition), XIAP BIR2; conditions: read-out: XIAP BIR2 (pIC50) (converted)
Sequence of XIAP-BIR2 (P98170 124-240): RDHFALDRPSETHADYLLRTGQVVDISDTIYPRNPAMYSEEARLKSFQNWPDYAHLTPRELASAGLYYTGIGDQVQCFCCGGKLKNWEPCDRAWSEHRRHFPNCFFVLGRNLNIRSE
How it was run: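 Competitive TR-FRET used His-tagged XIAP-BIR2 (200 nM) and 200 nM AlexaFluor647-labelled AVPIAQKSE SMAC peptide in HEPES buffer pH 7.4 with CHAPS, glycerol and DTT, incubated 60 min before 30 min with 2 nM Eu-W1024. The 615/665 nm ratio from a 15-point, 3-fold series was fit with a four-parameter model for IC50/pIC50.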

Row | Compound | EC50 [1] [nM] | IC50 (cIAP1-BIR3) [nM] | IC50 (cIAP1-BIR2) [µM] | IC50 (cIAP2-BIR3) [nM] | IC50 (cIAP2-BIR2) [µM] | IC50 (XIAP-BIR3) [nM] | IC50 (XIAP-BIR2; FRET competition binding) [µM] | cIAP1 BIR3 vs BIR2 separation window (cIAP1-BIR3) | cIAP2 BIR3 vs BIR2 separation window (cIAP2-BIR3) | XIAP BIR3 vs BIR2 separation window (XIAP-BIR3) | IC50 (XIAP-BIR2; FRET competition) [µM]
1 | C[C@@H]1CN(CC(=O)N2CC(C)(C)c3[nH]c(=O)c(Cc4ccc(F)cc4)cc32)[C@@H](CN2CCN(C(=O)CN(C)CC(=O)N3CCN(C[C@H]4CN[C@H](C)CN4CC(=O)N4CC(C)(C)c5[nH]c(=O)c(Cc6ccc(F)cc6)cc54)[C@H](C)C3)C[C@H]2C)CN1 [Example 15, 1,1′-(2,2′-((3R,3′R,6R,6′R)-(((2R,2′R)-(2,2′-(methylazanediyl)bis(acetyl))bis(2-methylpiperazine-4,1-diyl))bis(methylene))bis(3-methylpiperazine-6,1-diyl))bis(acetyl))bis(6-(4-fluorobenzyl)-3,3-dimethyl-1,2,3,4-tetrahydro-5H-pyrrolo[3,2-b]pyridin-5-one)] | 63.1 to 316 | 1.38 to 7.94 | 0.0224 to 1 | 1.38 to 7.94 | 0.0224 to 1 | 1.38 to 7.94 | 10 to 51.3 |  |  |  | 
2 | C[C@@H]1CN(CC(=O)N2CC(C)(C)c3[nH]c(=O)c(Cc4ccc(F)cc4)cc32)[C@@H](CN2CCO[C@H](COCC#CC#CCOC[C@@H]3CN(C[C@H]4CN[C@H](C)CN4CC(=O)N4CC(C)(C)c5[nH]c(=O)c(Cc6ccc(F)cc6)cc54)CCO3)C2)CN1 [Example 63, 1,1′-(2,2′-((3R,3′R,6R,6′R)-(((2S,2'S)-((hexa-2,4-diyne-1,6-diylbis(oxy))bis(methylene))bis(morpholine-2,4-diyl))bis(methylene))bis(3-methylpiperazine-6,1-diyl))bis(acetyl))bis(6-(4-fluorobenzyl)-3,3-dimethyl-1,2,3,4-tetrahydro-5H-pyrrolo[3,2-b]pyridin-5-one)] | 12.6 to 63.1 | 7.94 to 15.8 | 1 to 3.16 | 15.8 to 31.6 | 3.16 to 10 | 15.8 to 31.6 | 10 to 51.3 |  |  |  | 
3 | C[C@@H]1CN(CC(=O)N2CC(C)(C)c3[nH]c(=O)c(Cc4ccc(F)cc4)cc32)[C@@H](CN2CCO[C@H](C(=O)NCCOCCNC(=O)[C@@H]3CN(C[C@H]4CN[C@H](C)CN4CC(=O)N4CC(C)(C)c5[nH]c(=O)c(Cc6ccc(F)cc6)cc54)CCO3)C2)CN1 [Compound 138, (2S,2′S)-N,N′-(oxybis(ethane-2,1-diyl))bis(4-(((2R,5R)-1-(2-(6-(4-fluorobenzyl)-3,3-dimethyl-5-oxo-2,3,4,5-tetrahydro-1H-pyrrolo[3,2-b]pyridin-1-yl)-2-oxoethyl)-5-methylpiperazin-2-yl)methyl)morpholine-2-carboxamide)] | 63.1 to 316 | 1.38 to 7.94 | 1 to 3.16 | 1.38 to 7.94 | 1 to 3.16 | 7.94 to 15.8 |  | +++ (10,000>FS>1,000) | +++ (10,000>FS>1,000) | ++++ (FS>10,000) | 10 to 51.3
4 | C[C@@H]1CN(CC(=O)N2CC(C)(C)c3[nH]c(=O)c(Cc4ccc(F)cc4)cc32)[C@@H](CN2CCO[C@H](C(=O)NCCCCCNC(=O)[C@@H]3CN(C[C@H]4CN[C@H](C)CN4CC(=O)N4CC(C)(C)c5[nH]c(=O)c(Cc6ccc(F)cc6)cc54)CCO3)C2)CN1 [Compound 136, (2S,2′S)-N,N′-(pentane-1,5-diyl)bis(4-(((2R,5R)-1-(2-(6-(4-fluorobenzyl)-3,3-dimethyl-5-oxo-2,3,4,5-tetrahydro-1H-pyrrolo[3,2-b]pyridin-1-yl)-2-oxoethyl)-5-methylpiperazin-2-yl)methyl)morpholine-2-carboxamide)] | 63.1 to 316 | 7.94 to 15.8 | 1 to 3.16 | 7.94 to 15.8 | 1 to 3.16 | 15.8 to 31.6 |  | +++ (10,000>FS>1,000) | +++ (10,000>FS>1,000) | ++++ (FS>10,000) | 10 to 51.3
5 | C[C@@H]1CN(CC(=O)N2CC(C)(C)c3ncc(Cc4ccc(F)cc4)cc32)[C@@H](CN2CCO[C@H](COc3cccc(OC[C@@H]4CN(C[C@H]5CN[C@H](C)CN5CC(=O)N5CC(C)(C)c6ncc(Cc7ccc(F)cc7)cc65)CCO4)c3)C2)CN1 [Compound 145] | 12.6 to 63.1 | 7.94 to 15.8 | 3.16 to 10 | 7.94 to 15.8 | 10 to 51.3 | 31.6 to 501 |  | +++ (10,000>FS>1,000) | +++ (10,000>FS>1,000) | ++++ (FS>10,000) | 10 to 51.3
6 | C[C@@H]1CN(CC(=O)N2CC(C)(C)c3[nH]c(=O)c(Cc4ccc(F)cc4)cc32)[C@@H](CN2CCO[C@H](C(=O)N(C)CCCN(C)C(=O)[C@@H]3CN(C[C@H]4CN[C@H](C)CN4CC(=O)N4CC(C)(C)c5[nH]c(=O)c(Cc6ccc(F)cc6)cc54)CCO3)C2)CN1 [Example 130, (2S,2'S)-N,N′-(Propane-1,3-diyl)bis(4-(((2R,5R)-1-(2-(6-(4-fluorobenzyl)-3,3-dimethyl-5-oxo-2,3,4,5-tetrahydro-1H-pyrrolo[3,2-b]pyridin-1-yl)-2-oxoethyl)-5-methylpiperazin-2-yl)methyl)-N-methylmorpholine-2-carboxamide)] | 12.6 to 63.1 | 1.38 to 7.94 | 1 to 3.16 | 1.38 to 7.94 | 1 to 3.16 | 7.94 to 15.8 | 10 to 51.3 | +++ (10,000>FS>1,000) | +++ (10,000>FS>1,000) | ++++ (FS>10,000) | 
7 | C[C@@H]1CN(CC(=O)N2CC(C)(C)c3[nH]c(=O)c(Cc4ccc(F)cc4)cc32)[C@@H](CN2CCO[C@H](COc3ccccc3Oc3ccccc3OC[C@@H]3CN(C[C@H]4CN[C@H](C)CN4CC(=O)N4CC(C)(C)c5[nH]c(=O)c(Cc6ccc(F)cc6)cc54)CCO3)C2)CN1 [Example 68, 1,1′-(2,2′-((3R,3′R,6R,6′R)-(((2S,2'S)-(((oxybis(2,1-phenylene))bis(oxy))bis(methylene))bis(morpholine-2,4-diyl))bis(methylene))bis(3-methylpiperazine-6,1-diyl))bis(acetyl))bis(6-(4-fluorobenzyl)-3,3-dimethyl-1,2,3,4-tetrahydro-5H-pyrrolo[3,2-b]pyridin-5-one)] | 0.49 to 12.6 | 15.8 to 31.6 | 3.16 to 10 | 7.94 to 15.8 | 1 to 3.16 | 7.94 to 15.8 | 10 to 51.3 | +++ (10,000>FS>1,000) | +++ (10,000>FS>1,000) | +++ (10,000>FS>1,000) | 
8 | C[C@@H]1CN(CC(=O)N2CC(C)(C)c3[nH]c(=O)c(Cc4ccc(F)cc4)cc32)[C@@H](CN2CCO[C@H](C(=O)N(C)CC3CCN(C(=O)[C@@H]4CN(C[C@H]5CN[C@H](C)CN5CC(=O)N5CC(C)(C)c6[nH]c(=O)c(Cc7ccc(F)cc7)cc65)CCO4)CC3)C2)CN1 [Example 132, (S)-4-(((2R,5R)-1-(2-(6-(4-fluorobenzyl)-3,3-dimethyl-5-oxo-2,3,4,5-tetrahydro-1H-pyrrolo[3,2-b]pyridin-1-yl)-2-oxoethyl)-5-methylpiperazin-2-yl)methyl)-N-((1-((S)-4-(((2R,5R)-1-(2-(6-(4-fluorobenzyl)-3,3-dimethyl-5-oxo-2,3,4,5-tetrahydro-1H-pyrrolo[3,2-b]pyridin-1-yl)-2-oxoethyl)-5-methylpiperazin-2-yl)methyl)morpholine-2-carbonyl)piperidin-4-yl)methyl)-N-methylmorpholine-2-carboxamide] | 12.6 to 63.1 | 7.94 to 15.8 | 3.16 to 10 | 7.94 to 15.8 | 1 to 3.16 | 15.8 to 31.6 | 10 to 51.3 | +++ (10,000>FS>1,000) | +++ (10,000>FS>1,000) | ++++ (FS>10,000) | 

— US20250326771A1, “PIPERAZINE DERIVATIVES USEFUL IN HIV THERAPY” (VIIV HEALTHCARE COMPANY, priority 2022, published 2025)
